Where two headings read alike, the source gives them in different places.
Assays:
Pim1 kinase [1] = biological target: T1, Pim1 kinase (Homo sapiens (Human), UniProt P11309); assay: biochemical
Pim1 kinase [2] = biological target: T1, Pim1 kinase; details: read-out: Pim1 IC50
Pim3 kinase = Pim3 kinase (Homo sapiens (Human), UniProt Q86V86); details: read-out: Pim3 IC50

T1 sequence (P11309 whole entry): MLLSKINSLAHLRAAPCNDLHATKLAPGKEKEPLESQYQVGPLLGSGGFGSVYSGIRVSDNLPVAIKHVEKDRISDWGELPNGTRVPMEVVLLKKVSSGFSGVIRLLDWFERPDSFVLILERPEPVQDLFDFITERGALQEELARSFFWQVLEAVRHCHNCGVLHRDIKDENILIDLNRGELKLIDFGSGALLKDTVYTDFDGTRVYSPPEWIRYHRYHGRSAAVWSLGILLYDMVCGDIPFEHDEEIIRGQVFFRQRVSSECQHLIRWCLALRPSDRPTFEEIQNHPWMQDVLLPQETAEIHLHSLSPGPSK

| Compound | IC50 (Pim1 kinase [1]) [nM] | IC50 (Pim1 kinase [2]) [nM] | IC50 (Pim3 kinase) [nM] |
| --- | --- | --- | --- |
| Nc1ccc(-c2c(F)cccc2F)nc1C(=O)Nc1cnccc1[C@@H]1CC[C@H](O)[C@H](N)C1 (stereo in doubt) [Example 102, 3-amino-N-(4-(3-amino-4-hydroxycyclohexyl)pyridin-3-yl)-6-(2,6-difluorophenyl)picolinamide] | 1 |  |  |
| Cc1ccc(F)c(-c2cccc(C(=O)Nc3cnccc3[C@H]3C[C@@H](N)[C@@H](O)[C@@H](C)C3)n2)c1 [Example 74, N-(4-((1R,3R,4S,5S)-3-amino-4-hydroxy-5-methylcyclohexyl)pyridin-3-yl)-6-(2-fluoro-5-methylphenyl)picolinamide] |  | 1 | 4 |
| C[C@H]1C[C@@H](c2ccncc2NC(=O)c2cccc(-c3c(F)cccc3F)n2)C[C@@H](N)[C@H]1O [Example 76, N-(4-((1R,3R,4S,5S)-3-amino-4-hydroxy-5-methylcyclohexyl)pyridin-3-yl)-6-(2,6-difluorophenyl)picolinamide] |  | 1 | 2 |
| N[C@H]1CCC[C@@H](c2ccncc2NC(=O)c2ccc(F)c(-c3cccc(F)c3F)n2)C1 [Example 79, N-(4-((1R,3S)-3-aminocyclohexyl)pyridin-3-yl)-6-(2,3-difluorophenyl)-5-fluoropicolinamide] |  | 2 | 3 |
| N[C@H]1CCC[C@@H](c2ccncc2NC(=O)c2nc(-c3c(F)cccc3F)ccc2F)C1 [Example 80, N-(4-((1R,3S)-3-aminocyclohexyl)pyridin-3-yl)-6-(2,6-difluorophenyl)-3-fluoropicolinamide] |  | 6 | 7 |
| N[C@H]1CCC[C@@H](c2ccncc2NC(=O)c2ccc(F)c(-c3ccc(F)cc3F)n2)C1 [Example 82, N-(4-((1R,3S)-3-aminocyclohexyl)pyridin-3-yl)-6-(2,4-difluorophenyl)-5-fluoropicolinamide] |  | 3 | 9 |
| N[C@@H]1C[C@H](c2ccncc2NC(=O)c2cccc(-c3ccccc3F)n2)CC[C@@H]1O [Example 83, N-(4-((1R,3R,4S)-3-amino-4-hydroxycyclohexyl)pyridin-3-yl)-6-(2-fluorophenyl)picolinamide] |  | 4 | 5 |
| Nc1ccc(-c2c(F)cccc2F)nc1C(=O)Nc1cnccc1C1=CC(N)C(O)CC1 (stereo not drawn) [Example 92, 3-amino-N-(4-(trans)-3-amino-4-hydroxycyclohex-1-enyl)pyridin-3-yl)-6-(2,6-difluorophenyl)picolinamide] |  | 2 | 5 |
| Nc1ccc(-c2c(F)cccc2F)nc1C(=O)Nc1cnccc1C1=C[C@@H](N)[C@@H](O)CC1 [Example 93] |  | 1 | 5 |
| C[C@@H]1CN(c2ccncc2NC(=O)c2nc(-c3c(F)cccc3F)ccc2N)C[C@@H](N)[C@H]1O [Example 103, 3-amino-N-(4-((3R,4S,5R)-3-amino-4-hydroxy-5-methylpiperidin-1-yl)pyridin-3-yl)-6-(2,6-difluorophenyl)picolinamide] |  | 2 | 4 |
| Cc1ccc(F)c(-c2cccc(C(=O)Nc3cnccc3[C@H]3C[C@@H](N)C[C@@H](C(F)(F)F)C3)n2)c1 [Example 108, N-(4-((1R,3R,5S)-3-amino-5-(trifluoromethyl)cyclohexyl)pyridin-3-yl)-6-(2-fluoro-5-methylphenyl)picolinamide] |  | 1 | 3 |
| N[C@@H]1C[C@H](c2ccncc2NC(=O)c2ccc(F)c(C3CCCCC3)n2)C[C@H](C(F)(F)F)C1 [Example 111, N-(4-((1R,3R,5S)-3-amino-5-(trifluoromethyl)cyclohexyl)pyridin-3-yl)-6-cyclohexyl-5-fluoropicolinamide] |  | 2 | 11 |
| C[C@H]1CN(c2ccncc2NC(=O)c2ccc(F)c(-c3ccccc3F)n2)C[C@@H](O)[C@@H]1O [Example 114, N-(4-((3R,4R,5S)-3,4-dihydroxy-5-methylpiperidin-1-yl)pyridin-3-yl)-5-fluoro-6-(2-fluorophenyl)picolinamide] |  | 1 | 1 |
| C[C@H]1CN(c2ccncc2NC(=O)c2cccc(-c3c(F)cccc3F)n2)C[C@@H](O)[C@@H]1O [Example 115, 6-(2,6-difluorophenyl)-N-(4-((3R,4R,5S)-3,4-dihydroxy-5-methylpiperidin-1-yl)pyridin-3-yl)picolinamide] |  | 1 | 1 |
| C[C@H]1CN(c2ccncc2NC(=O)c2ccc(F)c(-c3cccnc3)n2)C[C@@H](N)[C@@H]1O [Example 118, N-(4-((3R,4R,5S)-3-amino-4-hydroxy-5-methylpiperidin-1-yl)pyridin-3-yl)-3-fluoro-2,3′-bipyridine-6-carboxamide] |  | 4 | 9 |
| C[C@H]1CN(c2ccncc2NC(=O)c2ccc(F)c(-c3ccncc3F)n2)C[C@@H](N)[C@@H]1O [Example 119, N-(4-((3R,4R,5S)-3-amino-4-hydroxy-5-methylpiperidin-1-yl)pyridin-3-yl)-3,3′-difluoro-2,4′-bipyridine-6-carboxamide] |  | 1 | 2 |
| C[C@H]1CN(c2ccncc2NC(=O)c2ccc(F)c(-c3ccncc3)n2)C[C@@H](N)[C@@H]1O [Example 120, N-(4-((3R,4R,5S)-3-amino-4-hydroxy-5-methylpiperidin-1-yl)pyridin-3-yl)-3-fluoro-2,4′-bipyridine-6-carboxamide] |  | 3 | 7 |
| COc1cc(F)c(-c2nc(C(=O)Nc3cnccc3[C@H]3C[C@@H](N)CC(C)(C)C3)ccc2F)c(F)c1 [Example 123, N-(4-((1R,5R)-5-amino-3,3-dimethylcyclohexyl)pyridin-3-yl)-6-(2,6-difluoro-4-methoxyphenyl)-5-fluoropicolinamide] |  | 1 | 2 |
| N[C@H]1CCC[C@@H](c2ccncc2NC(=O)c2ccc(F)c(-c3c(F)ccc(O)c3F)n2)C1 [Example 124, N-(4-((1R,3S)-3-aminocyclohexyl)pyridin-3-yl)-6-(2,6-difluoro-3-hydroxyphenyl)-5-fluoropicolinamide] |  | 1 | 1 |
| C[C@H]1C[C@@H](c2ccncc2NC(=O)c2ccc(F)c(-c3cccc(C(F)(F)F)c3F)n2)C[C@@H](N)[C@@H]1O [Example 127, N-(4-((1R,3R,4R,5S)-3-amino-4-hydroxy-5-methylcyclohexyl)pyridin-3-yl)-5-fluoro-6-(2-fluoro-3-(trifluoromethyl)phenyl)picolinamide] |  | 11 | 27 |
| C[C@@H]1C[C@H](N)C[C@H](c2ccncc2NC(=O)c2ccc(F)c(-c3c(F)ccc(F)c3F)n2)C1 [Example 129, N-(4-((1R,3S,5S)-3-amino-5-methylcyclohexyl)pyridin-3-yl)-5-fluoro-6-(2,3,6-trifluorophenyl)picolinamide] |  | 1 | 2 |
| Nc1cc(F)c(-c2ccncc2F)nc1C(=O)Nc1cnccc1[C@@H]1CCC[C@H](N)C1 [Example 136, 5-amino-N-(4-((1R,3S)-3-aminocyclohexyl)pyridin-3-yl)-3,3′-difluoro-2,4′-bipyridine-6-carboxamide] |  | 2 | 9 |
| CC1CC(c2ccncc2NC(=O)c2ccc(F)c(-c3c(F)cccc3F)n2)=CC(O)C1 (stereo not drawn) [Example 137, 6-(2,6-difluorophenyl)-5-fluoro-N-(4-(3-hydroxy-5-methylcyclohex-1-enyl)pyridin-3-yl)picolinamide] |  | 1 | 7 |

From patent US8592455B2 (priority 2008, dated 2013)
